# Reference: patent US5756510A, “Benzamide analogs useful as PARP (ADP-ribosyltransferase, ADPRT) DNA repair enzyme inhibitors” (Newcastle University Ventures Limited, priority 1994, dated 1998)
# Biological target: T1, PARP (Mus musculus, UniProt P11103)
# T1 construct: endogenous in cells; host or cells: L1210 murine leukaemia cells, permeabilised by hypotonic buffer and cold shock
# Test: PARP inhibition assay ([32P]-NAD incorporation into TCA-precipitated poly(ADP-ribose) in permeabilised L1210 cells, oligonucleotide activated)
# Assay type: biochemical, L1210 murine leukaemia cells
# Conditions: not given
# Excerpt: In principle, the PARP assay used relies upon activating endogenous PARP (as hereinafter described) in cells containing exogenous [^32 P]-NAD^+ introduced therein by suspending the cells in a solution of [^32 P]-NAD^+ to which they have been rendered permeable in an initial pretreatment step. The poly(ADP-ribose) which is then synthesised by the enzyme can be precipitated by trichloracetic acid (TCA) and the amount of radio-labelled ^32 p incorporated therein measured, e.g. using a scintillation counter, to give a measure of the activity of the PARP under the particular conditions of the experiment. By repeating the experiment following the same procedure, and under the same conditions, in the presence of each compound to be tested the reduction in enzyme activity, representative of the inhibitory effect of the test compound, can then be ascertained from the reduction, if any, of the amount of [^32 P] measured in the TCA precipitated poly(ADP-ribose).
# Thus, with a range of different compounds a set of comparative values for inhibitory activity can be obtained.
# In practice, L1210 murine leukaemia cells were used as the source of the PARP enzyme after being rendered permeable to exogenous [^32 P]NAD by exposure to hypotonic buffer and cold shock. […] This oligonucleotide sequence snaps back on itself to form a double-stranded molecule with a single blunt end and provides an effective substrate for activation of PARP.
# The experimental protocol adopted, in which a synthetic oligonucleotide as mentioned above is introduced as a specific activator of PARP, discriminates between PARP and other mono-ADP-ribosyltransferases in the cells.
# The oligonucleotide having the palindromic sequence […], synthesised by conventional means, was vacuum dried and stored as pellets in a freezer. Before use, it was made up to 200 μg/ml in 10 mM Tris/HCl, pH 7.8, with each pellet being dissolved completely in […] of buffer. The solution was then heated to 60° C. in a water bath for 15 minutes, and allowed to cool slowly to ensure correct reannealing. After adding 9.5 ml of buffer, the concentration was checked by measuring the optical density of a diluted sample at 260 nm. The main solution was then diluted to a concentration of 200 μg/ml and stored in 500 μl aliquots in a freezer, ready for use.
# The L1210 cells used as the source of the PARP enzyme were maintained as a suspension culture in RPMI medium+10% foetal bovine serum+glutamine and antibiotics (penicillin and streptomycin). HEPES and sodium bicarbonate were also added, and the cells were seeded in 100 ml of medium such that there would be a concentration of approximately 8×10^5 /ml at the time of carrying out an assay.
# (§1) The solubility of the compound was then checked by adding a quantity of the DMSO solution to a quantity of the isotonic buffer, in the required final proportions that were to be used in carrying out the assay, and after an interval the solution was examined under a microscope for any signs of crystals forming.
# A desired quantity of the cells, ascertained by counting with a haemocytometer, was then centrifuged (1500 rpm in a "Europa" model 24M centrifuge for 5 minutes), the supernatant removed, and the pellets obtained were resuspended in 20 ml Dul A at 4° C. before centrifuging again at 1500 rpm and 4° C. After again removing the supernatant, the cells were resuspended at a concentration of 3×10^7 cells/ml in ice cold hypotonic buffer and left for 30 minutes on ice. Nine volumes were then added of ice cold isotonic buffer, and the cells, now rendered permeable to exogenous NAD^+, were then used within the next hour for carrying out an assay.
# T1 sequence (P11103 whole entry): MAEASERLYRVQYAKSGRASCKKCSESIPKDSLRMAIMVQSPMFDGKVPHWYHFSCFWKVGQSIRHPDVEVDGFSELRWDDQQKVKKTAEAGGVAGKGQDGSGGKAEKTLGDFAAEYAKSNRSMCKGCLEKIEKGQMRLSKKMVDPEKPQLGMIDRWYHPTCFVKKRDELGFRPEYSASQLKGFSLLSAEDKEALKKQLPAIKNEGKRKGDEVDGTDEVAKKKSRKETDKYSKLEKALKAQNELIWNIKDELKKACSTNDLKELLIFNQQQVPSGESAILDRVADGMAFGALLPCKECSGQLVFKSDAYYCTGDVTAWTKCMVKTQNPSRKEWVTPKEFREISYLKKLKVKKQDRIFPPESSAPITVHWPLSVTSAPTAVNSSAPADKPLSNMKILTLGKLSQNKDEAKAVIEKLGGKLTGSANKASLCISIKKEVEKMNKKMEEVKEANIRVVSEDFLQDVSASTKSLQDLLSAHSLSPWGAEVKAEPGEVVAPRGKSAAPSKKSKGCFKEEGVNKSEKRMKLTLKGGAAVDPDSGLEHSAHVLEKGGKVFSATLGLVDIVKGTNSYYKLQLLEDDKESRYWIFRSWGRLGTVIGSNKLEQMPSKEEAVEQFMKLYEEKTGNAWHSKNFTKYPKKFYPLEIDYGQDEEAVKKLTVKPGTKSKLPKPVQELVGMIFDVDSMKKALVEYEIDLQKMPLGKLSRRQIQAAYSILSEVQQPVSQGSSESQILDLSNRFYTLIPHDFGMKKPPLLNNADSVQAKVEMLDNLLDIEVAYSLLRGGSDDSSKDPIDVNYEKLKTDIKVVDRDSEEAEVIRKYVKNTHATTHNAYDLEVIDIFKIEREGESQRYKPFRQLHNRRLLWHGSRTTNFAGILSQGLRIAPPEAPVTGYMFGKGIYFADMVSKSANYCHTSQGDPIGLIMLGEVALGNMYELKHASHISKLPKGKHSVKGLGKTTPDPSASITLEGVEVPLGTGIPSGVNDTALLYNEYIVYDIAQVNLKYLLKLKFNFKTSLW
Compound,PARP inhibitory activity in words,IC50 [nM],activation of PARP in words
"NC(=O)c1cccc(OCC2CCCCC2)c1 [NU1008, 3-(cyclohexylmethyloxy)benzamide]",some PARP inhibitory activity,,
"O=c1[nH]cnc2c(O)cccc12 [NU1026, 8-hydroxyquinazolin-4-[3H]one]",quite strong PARP inhibitory activity,,
"CC(C)(C)c1nc2c(C(N)=O)cccc2o1 [NU1040, 2-t-butylbenzoxazole-4-carboxamide]",relatively high inhibitory activity even at low concentrations,,
"NC(=O)c1cccc2oc(-c3ccccc3)nc12 [NU1051, 2-Phenylbenzoxazole-4-carboxamide]",relatively high inhibitory activity even at low concentrations,2100,
"COc1ccc(-c2nc3c(C(N)=O)cccc3o2)cc1 [NU1054, 2-(4-Methoxyphenyl)benzoxazole-4-carboxamide]",relatively high inhibitory activity even at low concentrations,1100,
"Cc1nc2c(C(N)=O)cccc2o1 [NU1056, 2-Methylbenzoxazole-4-carboxamide]",relatively high inhibitory activity even at low concentrations,9500,
"COc1cccc2c(=O)[nH]c(C)nc12 [NU1063, 8-Methoxy-2-methylquinazolin-4-[3H]-one]",potent PARP inhibitors,780,
"COc1cccc2c(=O)[nH]c(-c3ccccc3)nc12 [NU1065, 8-Methoxy-2-phenylquinazolin-4-[3H]-one]",,4200,
"O=c1[nH]c(-c2ccccc2)nc2c(O)cccc12 [NU1068, 8-Hydroxy-2-phenylquinazolin-4-[3H]-one]",potent PARP inhibitors,530,
"Cc1nc2c(C)cccc2c(=O)[nH]1 [NU1069, 2,8-Dimethylquinazolin-4-[3H]-one]",potent PARP inhibitors,200,
CGGAATTCCG: small synthetic single strand oligonucleotide having the palindromic sequence CGGAATTCCG (chemistry not given here) [reference compound],,,potent activator of the enzyme

# Same assay, conditions: 0.5 μM
row,Compound,inhibition at 0.5 µM [%]
1,"O=c1[nH]cnc2c(O)cccc12 [NU1026, 8-hydroxyquinazolin-4-[3H]one]",18

# Same assay, conditions: 1 μM (1.0 μM)
row,Compound,inhibition at 1 µM [%]
1,"O=c1[nH]cnc2c(O)cccc12 [NU1026, 8-hydroxyquinazolin-4-[3H]one]",38

# Same assay, conditions: 2.0 μM
row,Compound,inhibition at 2 µM [%]
1,"O=c1[nH]cnc2c(O)cccc12 [NU1026, 8-hydroxyquinazolin-4-[3H]one]",54

# Same assay, conditions: 10 μM; read-out: % Inhibition (PARP)
row,Compound,inhibition at 10 µM [%]
1,"NC(=O)c1cccc(O)c1 [3-hydroxybenzamide, reference compound]",35
2,"COc1cccc(C(N)=O)c1 [3-methoxybenzamide, reference compound]",55
3,"COc1ccc(COc2cccc(C(N)=O)c2)cc1 [NU1006, 3-(4-methoxybenzyloxy)benzamide]",58
4,"NC(=O)c1cccc(OCc2ccc([N+](=O)[O-])cc2)c1 [NU1007, 3-(4-nitrobenzyloxy)benzamide]",26
5,"NC(=O)c1cccc(OCc2ccc(N)cc2)c1 [NU1016, 3-(4-aminobenzyloxy)benzamide]",40
6,"NC(=O)c1cccc(OCc2ccc3c(c2)OCO3)c1 [NU1020, 3-(Piperonyloxy)benzamide]",51
7,"O=c1[nH]cnc2c(O)cccc12 [NU1026, 8-hydroxyquinazolin-4-[3H]one]",78
8,"CC(C)(C)c1nc2c(C(N)=O)cccc2o1 [NU1040, 2-t-butylbenzoxazole-4-carboxamide]",87
9,"NC(=O)c1cccc2oc(-c3ccccc3)nc12 [NU1051, 2-Phenylbenzoxazole-4-carboxamide]",82

# Same assay, conditions: 30 μM; read-out: % Inhibition (PARP)
row,Compound,inhibition at 30 µM [%]
1,"NC(=O)c1cccc(O)c1 [3-hydroxybenzamide, reference compound]",59
2,"COc1cccc(C(N)=O)c1 [3-methoxybenzamide, reference compound]",78
3,"COc1ccc(COc2cccc(C(N)=O)c2)cc1 [NU1006, 3-(4-methoxybenzyloxy)benzamide]",74
4,"NC(=O)c1cccc(OCc2ccc(N)cc2)c1 [NU1016, 3-(4-aminobenzyloxy)benzamide]",66
5,"NC(=O)c1cccc(OCc2ccc3c(c2)OCO3)c1 [NU1020, 3-(Piperonyloxy)benzamide]",70
6,"O=c1[nH]cnc2c(O)cccc12 [NU1026, 8-hydroxyquinazolin-4-[3H]one]",87
7,"CC(C)(C)c1nc2c(C(N)=O)cccc2o1 [NU1040, 2-t-butylbenzoxazole-4-carboxamide]",88

# Same assay, conditions: 100 μM; read-out: % Inhibition (PARP)
row,Compound,inhibition at 100 µM [%]
1,"NC(=O)c1cccc(O)c1 [3-hydroxybenzamide, reference compound]",81
2,"COc1cccc(C(N)=O)c1 [3-methoxybenzamide, reference compound]",89
3,"NC(=O)c1cccc(OCc2ccc(N)cc2)c1 [NU1016, 3-(4-aminobenzyloxy)benzamide]",84
4,"NC(=O)c1cccc(OCc2ccc3c(c2)OCO3)c1 [NU1020, 3-(Piperonyloxy)benzamide]",93
5,"O=c1[nH]cnc2c(O)cccc12 [NU1026, 8-hydroxyquinazolin-4-[3H]one]",95
6,"CC(C)(C)c1nc2c(C(N)=O)cccc2o1 [NU1040, 2-t-butylbenzoxazole-4-carboxamide]",93

# Same assay, conditions: unit printed broken, attached to the next cell
row,Compound,IC50 [nM]
1,"O=c1[nH]cnc2c(O)cccc12 [NU1026, 8-hydroxyquinazolin-4-[3H]one]",2000
2,"CC(C)(C)c1nc2c(C(N)=O)cccc2o1 [NU1040, 2-t-butylbenzoxazole-4-carboxamide]",8400

# System: not listed separately
# Test: solubility check of test compound in assay buffer (DMSO solution added to isotonic buffer, microscope)
# Assay type: physicochemical
# Conditions: 10 μM
# Excerpt: as §1, with “The compounds being tested were generally made up as a concentrated solution in DMSO (Dimethyl sulphoxide). The” for “The”
row,Compound,insolubility at assay concentration
1,"NC(=O)c1cccc(OCC2CCCCC2)c1 [NU1008, 3-(cyclohexylmethyloxy)benzamide]",insol.

# Same assay, conditions: 30 μM
row,Compound,insolubility at assay concentration
1,"NC(=O)c1cccc(OCc2ccc([N+](=O)[O-])cc2)c1 [NU1007, 3-(4-nitrobenzyloxy)benzamide]",insol.
2,"NC(=O)c1cccc(OCC2CCCCC2)c1 [NU1008, 3-(cyclohexylmethyloxy)benzamide]",insol.

# Same assay, conditions: 100 μM
row,Compound,insolubility at assay concentration
1,"COc1ccc(COc2cccc(C(N)=O)c2)cc1 [NU1006, 3-(4-methoxybenzyloxy)benzamide]",insol.
2,"NC(=O)c1cccc(OCc2ccc([N+](=O)[O-])cc2)c1 [NU1007, 3-(4-nitrobenzyloxy)benzamide]",insol.
3,"NC(=O)c1cccc(OCC2CCCCC2)c1 [NU1008, 3-(cyclohexylmethyloxy)benzamide]",insol.
